Patent US20250041429A1, “COMPOUND HAVING BTK PROTEIN DEGRADATION ACTIVITY, AND MEDICAL USES THEREOF” (UBIX THERAPEUTICS, INC., priority 2021, published 2025)

Target: T1, BTK protein (Homo sapiens, UniProt Q06187)
T1 construct: endogenous in cells; host or cells: TMD-8 cells
Experiment: Measurement of BTK protein degradation ability in TMD-8 cells (Western blotting)
Type: cell-based
Conditions: harvested after 24 hours; for BTK degradation (%) 1 nM: compound 1 nM; for BTK degradation (%) 10 nM: compound 10 nM; for BTK degradation (%) 100 nM: compound 100 nM
Method: TMD-8, RAMOS, or 293T BTK MUT (C481S) cells were treated with the synthesized compounds, and then the amount of BTK protein present in the cells was measured using Western blotting detection. The protocol for the experiment conducted using TMD-8 cells was as follows:
[Culture] TMD-8 cells were resuspended in RPMI1640 MEDIUM (Hyclone, SH30027.01), 10% FBS (Hyclone, SV30207.02), and 1% Penicillin-streptomycin (Welgene, LS 202-02) media, and 1 mL of this suspension was seeded in a 12-well plate at a cell concentration of 1×10^6/mL.
[Compound treatment] The 12-well plate was treated as follows: The 10 mM stock was serially diluted 1/10 with DMSO (3 μL+27 μL DMSO), and cells were treated with compounds at final concentrations of 0.1, 1, 10 μM or 0.0001, 0.001, 0.01, 0.1 μM, and harvested after 24 hours. In the negative control group, DMSO diluted 1/10 was added to the media. (3 μL DMSO+27 μL media)
[Harvest] Each well was pipetted with a 1 mL pipette, collected in a 1.5 mL microtube, and centrifuged (500 g, 5 min, 4° C.). After removing the supernatant, it was washed with PBS and centrifuged again (500 g, 5 min, 4° C.). The supernatant was removed and the pellet was collected.
[Cell lysis and Sample preparation] lysis buffer was prepared as follows: RIPA buffer (Biosesang, RC2038-050-00), 0.5 mM PMSF (SIGMA, P7626) and 1× Protease/Phosphatase Inhibitor (Cell signaling, 5872S) were added at 60-70 μL per well and left on ice for 30 minutes. (Vortexing at 0 and 30 minutes, respectively), followed by sonication (10 seconds pulse, 30 seconds rest, 5 cycles, 70% amplification) and centrifuge (15000 g, 15 min, 4° C.). Only the supernatant was collected and transferred to a new microtube. The samples were diluted by ½ with RIPA buffer in a 96-well plate. 200 μL of the mixture A:B=50:1 of the BCA Protein Assay Kit (iNtRON, 21071) was added each, stayed at 37° C. for 30 minutes, and cooled for 10 minutes. Afterwards, absorbance was measured at 562 nm using BioTek's SYNERGY H1 microplate reader. After making a sample by quantifying the protein using the measured value, it was boiled at 70° C. for 10 minutes. The sample buffer used at this time was a mixture of NuPAGE or Bolt 4× sample buffer (Invitrogen) and each 10× sample reducing agent according to the gel to be used. RIPA buffer was used for protein dilution.
[Western blotting detection method] The same amount of sample was loaded on NuPAGE or Bolt Bis-tris 4-12% gradient gel and run (200 V, 35 minutes). It was transferred to a […] NC membrane using Trans-blot Turbo (BIO-RAD) (1.3 A constant, 25 V limit, 15 minutes). For blocking, skim milk or Intercept Blocking Buffer (LI-COR, 927-60001): 0.1% TBST=1:1 was used at room temperature for 1 hour. Anti BTK Rabbit (1:1,000 in 5% skim milk/0.2% TBST, size: 77 kDa, Cell signaling Technology) was reacted at 4° C. for 16 hours or at room temperature for 2 hours. Anti GAPDH Rabbit (1:10,000 in 5% BSA/0.2% TBST, size: 36 kDa, GENETEX) and Anti β-actin mouse (1:10,000 in 5% BSA/0.2% TBST, RT, size: 43 kDa, GENETEX) were reacted at room temperature for 1 hour or 3 hours. The samples were washed 3 times with 0.5% TBST for 5 minutes each. Secondary antibodies, Anti-Rabbit IgG (1:5,000 in 5% Skim milk/TBST, CST), IRDye® 800CW Goat anti-Rabbit IgG Secondary Antibody (1:10,000 in 5% skim/TBST, RT 45 min), IRDye® 680RD Goat anti-Mouse IgG Secondary Antibody (1:10,000 in 5% skim/TBST, RT 45 min) were added depending on each sample and reacted for 45 minutes on a rocker at room temperature. The samples were washed 5 times with 0.5% TBST for 5 minutes each and detected with LI-COR's Odyssey. At this time, BTK was detected using SuperSignal West Pico PLUS Chemiluminescent Substrate or SuperSignal West femto Maximum Sensitivity Substrate, and house-keeping genes were detected as is.

T1 sequence (Q06187 whole entry): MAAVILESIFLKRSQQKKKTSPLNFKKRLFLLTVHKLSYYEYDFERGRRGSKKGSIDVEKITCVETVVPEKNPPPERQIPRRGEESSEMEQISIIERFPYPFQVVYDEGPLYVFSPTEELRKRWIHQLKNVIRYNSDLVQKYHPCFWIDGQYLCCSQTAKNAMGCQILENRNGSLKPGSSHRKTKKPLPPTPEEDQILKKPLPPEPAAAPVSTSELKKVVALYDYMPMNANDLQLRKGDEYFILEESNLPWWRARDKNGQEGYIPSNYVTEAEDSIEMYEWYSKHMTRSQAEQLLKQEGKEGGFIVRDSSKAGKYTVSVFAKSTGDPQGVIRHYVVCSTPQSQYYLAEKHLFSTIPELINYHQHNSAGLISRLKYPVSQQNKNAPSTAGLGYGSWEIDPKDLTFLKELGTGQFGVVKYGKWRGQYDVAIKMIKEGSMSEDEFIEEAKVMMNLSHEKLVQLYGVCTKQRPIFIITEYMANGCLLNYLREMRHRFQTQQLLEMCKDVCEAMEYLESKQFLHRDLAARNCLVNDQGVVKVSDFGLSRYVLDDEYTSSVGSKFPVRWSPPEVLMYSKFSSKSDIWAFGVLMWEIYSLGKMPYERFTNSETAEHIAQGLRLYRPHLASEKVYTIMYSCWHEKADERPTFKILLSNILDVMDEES

Row | SMILES | BTK degradation (%) 1 nM [%] | BTK degradation (%) 10 nM [%] | BTK degradation (%) 100 nM [%]
1 | Cc1cc(-c2ccnc(Nc3ccc(N4CCN(CC5CCN(C(=O)c6cccc(OC7CCC(=O)NC7=O)c6)CC5)CC4)cc3)n2)ccc1CNC(=O)N1CC(OC(C)C)C1 (stereo not shown) [Example 102, N-(4-(2-((4-(4-((1-(3-((2,6-dioxopiperidin-3-yl)oxy)benzoyl)piperidin-4-yl)methyl)piperazin-1-yl)phenyl)amino)pyrimidin-4-yl)-2-methylbenzyl)-3-isopropoxyazetidine-1-carboxamide] | 19.0 | 82.5 | 94.0
2 | Cc1cc(-c2ccnc(Nc3ccc(N4CCC(CN5CCC(c6ccc(NC7CCC(=O)NC7=O)cc6)CC5)CC4)cc3)n2)ccc1CNC(=O)c1cn(C(C)(C)C)nn1 (stereo not shown) [Example 136, 1-(tert-butyl)-N-(4-(2-((4-(4-((4-(4-((2,6-dioxopiperidin-3-yl)amino)phenyl)piperidin-1-yl)methyl)piperidin-1-yl)phenyl)amino)pyrimidin-4-yl)-2-methylbenzyl)-1H-1,2,3-triazole-4-carboxamide] | 71.0 | 95.5 | 98.5
3 | Cc1c(NC(=O)N2CC(OC(C)C)C2)cc(F)cc1-c1ccnc(Nc2ccc(N3CCN(CC4CCN(c5ccc6c(n5)CN(C5CCC(=O)NC5=O)C6=O)CC4)CC3)cc2)n1 (stereo not shown) [Example 26, N-(3-(2-((4-(4-((1-(6-(2,6-dioxopiperidin-3-yl)-5-oxo-6,7-dihydro-5H-pyrrolo[3,4-b]pyridin-2-yl)piperidin-4-yl)methyl)piperazin-1-yl)phenyl)amino)pyrimidin-4-yl)-5-fluoro-2-methylphenyl)-3-isopropoxyazetidine-1-carboxamide] | 15.5 | 76 | 93
4 | Cc1cc(-c2ccnc(Nc3ccc(C4CCN(CC5CCN(c6cccc(N7CCC(=O)NC7=O)c6)CC5)CC4)cc3)n2)ccc1CNC(=O)c1cn(C(C)(C)C)nn1 [Example 78, 1-(tert-butyl)-N-(4-(2-((4-(1-((1-(3-(2,4-dioxotetrahydropyrimidin-1 (2H)-yl)phenyl)piperidin-4-yl)methyl)piperidin-4-yl)phenyl)amino)pyrimidin-4-yl)-2-methylbenzyl)-1H-1,2,3-triazole-4-carboxamide] | 43.5 | 93.5 | 99.0
5 | Cc1c(NC(=O)N2CC(OC(C)C)C2)cc(F)cc1-c1ccnc(Nc2ccc3c(c2)CN(CC2CCN(c4ccc5c(c4)C(=O)N(C4CCC(=O)NC4=O)C5=O)CC2)CC3)n1 (stereo not shown) [Example 4, N-(3-(2-((2-((1-(2-(2,6-dioxopiperidin-3-yl)-1,3-dioxoisoindolin-5-yl)piperidin-4-yl)methyl)-1,2,3,4-tetrahydroisoquinolin-7-yl)amino)pyrimidin-4-yl)-5-fluoro-2-methylphenyl)-3-isopropoxyazetidine-1-carboxamide] | – | −3.5 | 29
6 | Cc1cc(-c2ccnc(Nc3ccc(N4CCN(CC5CCN(C(=O)c6cccc(NC7CCC(=O)NC7=O)c6)CC5)CC4)cc3)n2)ccc1CNC(=O)N1CC(OC(C)C)C1 (stereo not shown) [Example 87, N-(4-(2-((4-(4-((1-(3-((2,6-dioxopiperidin-3-yl)amino)benzoyl)piperidin-4-yl)methyl)piperazin-1-yl)phenyl)amino)pyrimidin-4-yl)-2-methylbenzyl)-3-isopropoxyazetidine-1-carboxamide] | 36.5 | 94.5 | 98.5
7 | Cc1c(NC(=O)N2CC(OC(C)C)C2)cc(F)cc1-c1ccnc(Nc2ccc(N3CCN(CC4CN(c5ccc6c(c5)C(=O)N(C5CCC(=O)NC5=O)C6=O)C4)CC3)cc2)n1 (stereo not shown) [Example 27, N-(3-(2-((4-(4-((1-(2-(2,6-dioxopiperidin-3-yl)-1,3-dioxoisoindolin-5-yl)azetidin-3-yl)methyl)piperazin-1-yl)phenyl)amino)pyrimidin-4-yl)-5-fluoro-2-methylphenyl)-3-isopropoxyazetidine-1-carboxamide] | 26.5 | 71.5 | 94.5

Next, values leading:

Row | BTK degradation (%) 1 nM [%] | BTK degradation (%) 10 nM [%] | BTK degradation (%) 100 nM [%] | SMILES
8 | 41 | 90 | 99.5 | Cc1cc(-c2ccnc(Nc3ccc(N4CCN(CC5CN(c6ccc7c(c6)C(=O)N(C6CCC(=O)NC6=O)C7=O)C5)CC4)cc3)n2)ccc1CNC(=O)c1cnn(C(C)C)c1 (stereo not shown) [Example 34, N-(4-(2-((4-(4-((1-(2-(2,6-dioxopiperidin-3-yl)-1,3-dioxoisoindolin-5-yl)azetidin-3-yl)methyl)piperazin-1-yl)phenyl)amino)pyrimidin-4-yl)-2-methylbenzyl)-1-isopropyl-1H-pyrazole-4-carboxamide]
9 | 60 | 93.5 | 98.5 | Cc1cc(-c2ccnc(Nc3ccc(N4CCN(CC5CN(c6ccc7c(c6)C(=O)N(C6CCC(=O)NC6=O)C7=O)C5)CC4)cc3)n2)ccc1CNC(=O)N1CC(OC(C)C)C1 (stereo not shown) [Example 11, N-(4-(2-((4-(4-((1-(2-(2,6-dioxopiperidin-3-yl)-1,3-dioxoisoindolin-5-yl)azetidin-3-yl)methyl)piperazin-1-yl)phenyl)amino)pyrimidin-4-yl)-2-methylbenzyl)-3-isopropoxyazetidine-1-carboxamide]
10 | 63.5 | 95 | 98 | Cc1cc(-c2ccnc(Nc3ccc(N4CCN(CC5CN(c6ccc7c(n6)CN(C6CCC(=O)NC6=O)C7=O)C5)CC4)cc3)n2)ccc1CNC(=O)N1CC(OC(C)C)C1 (stereo not shown) [Example 107, N-(4-(2-((4-(4-((1-(6-(2,6-dioxopiperidin-3-yl)-5-oxo-6,7-dihydro-5H-pyrrolo[3,4-b]pyridin-2-yl)azetidin-3-yl)methyl)piperazin-1-yl)phenyl)amino)pyrimidin-4-yl)-2-methylbenzyl)-3-isopropoxyazetidine-1-carboxamide]
11 | 44.0 | 97.0 | 100.0 | Cc1cc(-c2ccnc(Nc3ccc(N4CC(CN5CCN(c6ccc7c(c6)C(=O)N(C6CCC(=O)NC6=O)C7=O)CC5)C4)cc3)n2)ccc1CNC(=O)N1CC(OC(C)C)C1 (stereo not shown) [Example 112, N-(4-(2-((4-(3-((4-(2-(2,6-dioxopiperidin-3-yl)-1,3-dioxoisoindolin-5-yl)piperazin-1-yl)methyl)azetidin-1-yl)phenyl)amino)pyrimidin-4-yl)-2-methylbenzyl)-3-isopropoxyazetidine-1-carboxamide]
12 | – | 90 | 98.5 | Cc1cc(-c2ccnc(Nc3ccc(N4CCN(CC5CCN(c6ccc7c(c6)C(=O)N(C6CCC(=O)NC6=O)C7=O)CC5)CC4)cc3)n2)ccc1CNC(=O)N1CC(OC(C)C)C1 (stereo not shown) [Example 7, N-(4-(2-((4-(4-((1-(2-(2,6-dioxopiperidin-3-yl)-1,3-dioxoisoindolin-5-yl)piperidin-4-yl)methyl)piperazin-1-yl)phenyl)amino)pyrimidin-4-yl)-2-methylbenzyl)-3-isopropoxyazetidine-1-carboxamide]
